Values quoted from earlier work as cited in patent US20030069213A1, “ORAL PREPARATION” (priority 1997, published 2003).
Values after ≈ are worked out from the molar mass of the structure shown. Structures can show the parent of a compound that is named as a salt. Where two headings read alike, the source gives them in different places. Values belong to the compound of their own block, whether it stands above or below them.

Tests used:
[1] = not given; remark: listed apart in the source
[2] = dissolved in water

SMILES: NC[C@H]1CC[C@H](C(=O)Oc2ccc(CCC(=O)O)cc2)CC1 [cetraxate hydrochloride]
pKa (amino group): 10.5
pKa (carboxyl group): 4.5
solubility in water ([1]; pH 2.8, 22° C.): 27 mg/mL
solubility in water ([1]; pH 5.9, 22° C.): 0.4 mg/mL

SMILES: CN/C(=N/CCSCc1nc[nH]c1C)NC#N [cimetidine]
pKa: 7.1
solubility in water ([1]; pH 6.5, 25° C.): 30 mg/mL (≈ 119 mM)
solubility in water ([1]; pH 8.3, 25° C.): 5.3 mg/mL (≈ 21 mM)

SMILES: OC[C@@H](O)[C@@H](O)CO [erythritol]
heat of dissolution [2]: -42.9 cal/g

SMILES: OC[C@@H](O)[C@@H](O[C@H]1O[C@H](CO)[C@@H](O)[C@H](O)[C@H]1O)[C@H](O)[C@@H](O)CO [maltitol]
heat of dissolution [2]: -5.5 cal/g
heat of dissolution ([2]; listed as Maltitol): Maltitol (−5.5) cal/g

SMILES: OC[C@@H](O)[C@@H](O)[C@H](O)[C@H](O)CO [mannitol]
heat of dissolution [2]: -28.9 cal/g
heat of dissolution ([2]; listed as D-Mannitol): (−28.9) cal/g

SMILES: OC[C@@H](O)[C@@H](O)[C@H](O)[C@@H](O)CO [sorbitol]
heat of dissolution [2]: -24.1 cal/g
heat of dissolution ([2]; listed as D-Sorbitol): (−24.1) cal/g

Further lines, results first:

heat of dissolution [2]: -4.5 cal/g
heat of dissolution ([2]; listed as Sucrose): Sucrose (−4.5) cal/g
SMILES: OC[C@H]1O[C@@](CO)(O[C@H]2O[C@H](CO)[C@@H](O)[C@H](O)[C@H]2O)[C@@H](O)[C@@H]1O [sucrose]

pKa: 6.93
SMILES: Clc1ccccc1CN1CCc2sccc2C1 [ticlopidine hydrochloride]

pKa (amino group): 10.65
pKa (carboxyl group): 4.33
SMILES: NC[C@H]1CC[C@H](C(=O)O)CC1 [tranexamic acid]

heat of dissolution [2]: -35 cal/g
heat of dissolution ([2]; listed as Xylitol): Xylitol (−35) cal/g
SMILES: OC[C@@H](O)[C@H](O)[C@@H](O)CO [xylitol]
